Data on eleven molecules can be found in ChEMBL document CHEMBL5584203, “Discovery of sinomenine/8-Bis(benzylthio)octanoic acid hybrids as potential anti-leukemia drug candidate via mitochondrial pathway” (Bioorg Med Chem Lett, 2024).

Where only a bound is given, the exact number is not on record here.

For one series, the system named is HepG2. The series can be described thus: Antiproliferative activity against human HepG2 cells by CCK8 assay. Format: functional, cell-based.
For another series, the system named is K562. The series can be described thus: Antiproliferative activity against human K562 cells by CCK8 assay. Format: functional, cell-based. (In general: Tetrazolium assays rely on reduction of a dye to a coloured formazan, in cell work by metabolically active cells.)
Another series deals with MCF7. The series can be described thus: Antiproliferative activity against human MCF7 cells by CCK8 assay. The format is functional, cell-based.
For a further series, the system named is MDA-MB-231. The series is described as follows: Antiproliferative activity against human MDA-MB-231 cells by CCK8 assay. Format: functional, cell-based.
The test system of a further series is A549. The series is described as follows: Antiproliferative activity against human A549 cells by CCK8 assay. The format is functional, cell-based.
For the next series, the system named is PANC-1. The series can be described thus: Antiproliferative activity against human PANC-1 cells by CCK8 assay. Format: functional, cell-based.
A short description of series [1]: Cytotoxicity against human PBMCs by CCK8 assay. Format: toxicity, cell-based, PBMC.

The term IC50 denotes the midpoint of a concentration-inhibition curve. Read a low IC50 as greater potency in that assay.

Take `COC1=CC2[C@@H]3Cc4c(Cl)cc(OC)c(OCCCCOC(=O)CCCCC(CCSCc5ccccc5)SCc5ccccc5)c4[C@]2(CCN3C)CC1=O` (some centres not stated): the IC50 in the series on HepG2 was above 50 µM; with K562, 17.8 µM; with MCF7, above 50 µM; in the series with MDA-MB-231 it was above 50 µM; in the series on A549, above 50 µM; in the series on PANC-1, above 50 µM. The molecule further came in with a half-maximal inhibitory concentration (IC50) in series [1] above 50 µM.
As for `COC1=CC2[C@@H]3Cc4c(Br)cc(OC)c(OCCCOC(=O)CCCCC(CCSCc5ccccc5)SCc5ccccc5)c4[C@]2(CCN3C)CC1=O` (some centres not stated), the IC50 in the series on HepG2 was above 50 µM; in the series with K562 it was 24.3 µM; in the series on MCF7, above 50 µM; in the series with MDA-MB-231, above 50 µM; in the series on A549, above 50 µM; in the series on PANC-1, above 50 µM. The IC50 in series [1] was above 50 µM.
Regarding `COC1=CC2[C@@H]3Cc4c(Br)cc(OC)c(OCCCCOC(=O)CCCCC(CCSCc5ccccc5)SCc5ccccc5)c4[C@]2(CCN3C)CC1=O` (some centres not stated), the concentration for half-maximal inhibition (IC50) with HepG2 is above 50 µM; in the series with K562, 25.1 µM; with MCF7 it was above 50 µM; with MDA-MB-231, above 50 µM; with A549, above 50 µM; in the series with PANC-1, above 50 µM. In addition, the half-maximal inhibitory concentration (IC50) in series [1] is above 50 µM.
Regarding `COC1=CC2[C@@H]3Cc4c(Br)cc(OC)c(OCCCCCOC(=O)CCCCC(CCSCc5ccccc5)SCc5ccccc5)c4[C@]2(CCN3C)CC1=O` (some centres not stated), the half-maximal inhibitory concentration (IC50) with HepG2 is above 50 µM; in the series with K562, 22.5 µM; with MCF7 it was above 50 µM; in the series with MDA-MB-231 it was above 50 µM; in the series on A549 it was above 50 µM; in the series with PANC-1 it was above 50 µM. In series [1], this molecule returned an IC50 above 50 µM.
As for `COC1=CC2[C@@H]3Cc4c(Br)cc(OC)c(OC(=O)CCCCC(CCSCc5ccccc5)SCc5ccccc5)c4[C@]2(CCN3C)CC1=O` (some centres not stated), the concentration for half-maximal inhibition (IC50) in the series on HepG2 is above 50 µM; in the series with K562, 17.4 µM; in the series on MCF7 it was above 50 µM; with MDA-MB-231, above 50 µM; in the series with A549, above 50 µM; in the series on PANC-1, above 50 µM. In addition, in series [1], the IC50 is above 50 µM.
As for `COC1=CC2[C@@H]3Cc4c(Br)cc(OC)c(OCCCCCCOC(=O)CCCCC(CCSCc5ccccc5)SCc5ccccc5)c4[C@]2(CCN3C)CC1=O` (some centres not stated), the IC50 with HepG2, in the series with K562, in the series on MCF7, in the series on MDA-MB-231, in the series on A549 and with PANC-1 was above 50 µM in each case. The concentration for half-maximal inhibition (IC50) in series [1] is above 50 µM.
Consider `COC1=CC2[C@@H]3Cc4c(Cl)cc(OC)c(OCCOC(=O)CCCCC(CCSCc5ccccc5)SCc5ccccc5)c4[C@]2(CCN3C)CC1=O` (some centres not stated), for which the concentration for half-maximal inhibition (IC50) is above 50 µM in the series on HepG2; 16.8 µM in the series on K562; above 50 µM in the series on MCF7; above 50 µM in the series on MDA-MB-231; above 50 µM with A549; above 50 µM with PANC-1. This molecule registered an IC50 in series [1] above 50 µM.
Turning to `COC1=CC2[C@@H]3Cc4ccc(OC)c(OCCCOC(=O)CCCCC(CCSCc5ccccc5)SCc5ccccc5)c4[C@]2(CCN3C)CC1=O` (some centres not stated), the IC50 in the series with HepG2 was 37 µM; in the series on K562, 4.16 µM; with MCF7 it was 48.4 µM; in the series on MDA-MB-231, above 50 µM; with A549, 17.7 µM; with PANC-1 it was above 50 µM. In series [1], the IC50 is above 50 µM.
Regarding `COC1=CC2[C@@H]3Cc4c(Cl)cc(OC)c(OCCCCCOC(=O)CCCCC(CCSCc5ccccc5)SCc5ccccc5)c4[C@]2(CCN3C)CC1=O` (some centres not stated), the IC50 with HepG2 was above 50 µM; in the series with K562 it was 19.5 µM; in the series with MCF7, above 50 µM; with MDA-MB-231, above 50 µM; with A549, above 50 µM; with PANC-1, above 50 µM. Further, the 50% inhibitory concentration (IC50) in series [1] is above 50 µM.
With `COC1=CC2[C@@H]3Cc4ccc(OC)c(OC(=O)CCCCC(CCSCc5ccccc5)SCc5ccccc5)c4[C@]2(CCN3C)CC1=O` (some centres not stated), the 50% inhibitory concentration (IC50) in the series on HepG2 was above 50 µM; with K562 it was 23.4 µM; in the series with MCF7, above 50 µM; in the series on MDA-MB-231, above 50 µM; in the series on A549, above 50 µM; with PANC-1, above 50 µM. In series [1], this molecule yielded an IC50 above 50 µM.
In the case of `COC1=CC2[C@@H]3Cc4c(Br)cc(OC)c(OCCOC(=O)CCCCC(CCSCc5ccccc5)SCc5ccccc5)c4[C@]2(CCN3C)CC1=O` (some centres not stated), the IC50 in the series with HepG2 was above 50 µM; in the series on K562 it was 18.9 µM; with MCF7 it was above 50 µM; in the series on MDA-MB-231 it was above 50 µM; in the series on A549, above 50 µM; in the series on PANC-1, above 50 µM. Moreover, in series [1], the IC50 is above 50 µM.
